# Test results: ChEMBL document CHEMBL5241088, “Selective SIRT2 inhibitors as promising anticancer therapeutics: An update from 2016 to 2020” (Eur J Med Chem, 2021)
# How the values were obtained:
# [1] = biological target: T1, NAD-dependent protein deacetylase sirtuin-2 (Homo sapiens, UniProt Q8IXJ6); assay: Inhibition of human SIRT2 deacetylase activity using QPKKac as substrate
# T1 sequence (Q8IXJ6 whole entry): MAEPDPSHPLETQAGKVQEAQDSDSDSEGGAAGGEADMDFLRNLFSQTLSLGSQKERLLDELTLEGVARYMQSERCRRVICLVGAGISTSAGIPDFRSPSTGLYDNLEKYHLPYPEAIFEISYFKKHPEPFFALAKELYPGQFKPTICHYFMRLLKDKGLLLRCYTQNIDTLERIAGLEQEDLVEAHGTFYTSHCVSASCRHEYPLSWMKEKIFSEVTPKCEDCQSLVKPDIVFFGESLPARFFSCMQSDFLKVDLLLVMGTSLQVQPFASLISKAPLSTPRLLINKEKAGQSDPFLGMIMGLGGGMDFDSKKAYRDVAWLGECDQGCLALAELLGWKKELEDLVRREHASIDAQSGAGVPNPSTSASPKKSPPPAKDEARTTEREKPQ
# MCF7 [2] = assay: Antiproliferative activity against human MCF7 cells; type: functional, cell-based
# HEK-293T = assay: Antiproliferative activity against human HEK293T cells; type: functional, cell-based
# [3] = biological target: T1, NAD-dependent protein deacetylase sirtuin-2; assay: Inhibition of human SIRT2 using sirtuin substrate incubated for 30 mins by enzymatic fluorescence assay
# MCF7 [4] = assay: Cytotoxicity against human MCF7 cells assessed as cell viability measured after 3 days by Cell Titer Blue assay; type: functional, cell-based; conditions: MCF7, 72 h
# MDA-MB-468 = assay: Cytotoxicity against human MDA-MB-468 cells assessed as cell viability measured after 3 days by Cell Titer Blue assay; type: functional, cell-based; conditions: MDA-MB-468, 72 h
# MDA-MB-231 [5] = assay: Cytotoxicity against human MDA-MB-231 cells assessed as cell viability measured after 3 days by Cell Titer Blue assay; type: functional, cell-based; conditions: MDA-MB-231, 72 h
# [6] = biological target: T1, NAD-dependent protein deacetylase sirtuin-2; assay: Inhibition of human SIRT2 expressed in Escherichia coli BL21(DE3) using Ac-Arg-His-Lys-[Lys-(Ac)]-AMC substrate
# [7] = biological target: T1, NAD-dependent protein deacetylase sirtuin-2; assay: Inhibition of recombinant SIRT2 (unknown origin) using (FAM)-labeled fluorescent peptide-RHKK(Ac)LM by electrophoretic mobility shift assay
# [8] = biological target: T1, NAD-dependent protein deacetylase sirtuin-2; assay: Inhibition of human SIRT2 demyristoylation activity using ETDKac as substrate
# [9] = biological target: T1, NAD-dependent protein deacetylase sirtuin-2; assay: Inhibition of human SIRT2 using Ac-peptide as substrate assessed as fluorescence intensity by microplate reader
# Raji = assay: Cytotoxicity against human Raji cells assessed as cell viability after 72 hrs by CellTiter-Glo assay; type: functional, cell-based
# [10] = Cytotoxicity against human DLBCL cells assessed as cell viability after 72 hrs by CellTiter-Glo assay; type: functional, cell-based
# [11] = biological target: T2, NAD-dependent protein deacetylase sirtuin-2 (Homo sapiens) (UniProt Q8IXJ6); assay: Inhibition of human SIRT2 (34 to 356 amino acids) by surface plasmon resonance assay relative to control; conditions: concentration not given here
# T2 sequence (whole entry): T1 sequence (Q8IXJ6 whole entry)
# [12] = biological target: T1, NAD-dependent protein deacetylase sirtuin-2; assay: Inhibition of human GST-fused SIRT2 expressed in Escherichia coli BL21(DE3)
# [13] = biological target: T1, NAD-dependent protein deacetylase sirtuin-2; assay: Inhibition of SIRT2 (unknown origin)
# MCF7 [14] = assay: Antiproliferative activity against human MCF7 cells incubated for 72 hrs by MTT assay; type: functional
# MDA-MB-231 [15] = assay: Antiproliferative activity against human MDA-MB-231 cells incubated for 72 hrs by MTT assay; type: functional
smiles,measurement,setting,value
CCCCCCCCCCCCCC(=S)NCCCC[C@H](NS(C)(=O)=O)C(=O)N[C@H](C)C(=O)N[C@@H](CCCNC(=N)N)C(N)=O,IC50,[1],70 nM
same,IC50,MCF7 [2],500 nM
same,IC50,HEK-293T,100 nM
CC(C)=CCc1c(O)cc2oc3cc(O)c(O)c(CC=C(C)C)c3c(=O)c2c1O,IC50,[3],3800 nM
CCCCCCCCCCCCCC(=S)NCCCCC(NC(=O)OCc1ccccc1)C(=O)Nc1ccccc1 (stereo not drawn),IC50,MCF7 [4],8400 nM
same,IC50,MDA-MB-468,8600 nM
same,IC50,MDA-MB-231 [5],34100 nM
COc1ccc2cc(S(=O)(=O)Cc3ccc(OC(C)=O)cc3)oc2c1,IC50,[6],3810 nM
C=CCNC(=S)N/N=C/c1ccc(OC)c(Cn2cc([N+](=O)[O-])cn2)c1,IC50,[7],180 nM
CCCCCCCCCCCCCC(=S)NCCCC[C@H](NS(C)(=O)=O)C(=O)N[C@@H](C)C(=O)N[C@@H](CCCNC(=N)N)C(N)=O,IC50,[8],90 nM
same,IC50,MCF7 [2],50 nM
same,IC50,HEK-293T,10 nM
O=C(CSc1nnc2c3ccccc3n(Cc3ccccc3)c2n1)Nc1cccc2ccccc12,IC50,[9],1300 nM
CNC(=O)C(Cc1c(O)ccc2cc(Br)ccc12)C(=O)c1ccc(Br)cc1 (stereo not drawn),IC50,Raji,9100 nM
same,IC50,[10],5700 nM
CCOC(=O)c1c(/C=N/OCc2cn(CC(=O)c3ccc(OC)cc3)nn2)c2ccccc2n1C,inhibition,[11],73.1%
COc1cc2oc3cc(O)c(OC)c(CC=C(C)C)c3c(=O)c2c(O)c1CC=C(C)C,IC50,[3],18900 nM
CCC(C)(C)c1ccc(OCC(O)CN2C[C@@H]3C[C@H](C2)c2cccc(=O)n2C3)c(C(C)(C)CC)c1 (stereo partly drawn),IC50,[12],460 nM
COc1c(O)cc2oc3cc(O)c(CC=C(C)C)c(O)c3c(=O)c2c1CC=C(C)C [MANGOSTIN],IC50,[3],9200 nM
Cc1[nH]c2c(c1C(=O)N(C)Cc1cccc(-c3ccc(C(F)(F)F)cc3)c1)C(=O)CC(C)(C)C2,IC50,[13],980 nM
C[C@H](NC(=O)[C@H](CCCCNC(=S)CNC(=O)c1ccccc1Nc1cccc(OCCc2ccccc2)c1)NC(=O)OCc1ccccc1)C(N)=O,IC50,[13],1560 nM
same,GI50,MCF7 [14],8300 nM
same,GI50,MDA-MB-231 [15],8300 nM
